The values that follow come from US20210205389A1, “METHODS AND COMPOSITIONS FOR TREATING NON-SMALL CELL LUNG CANCER” (Chang Gung Medical Foundation Keelung Chang Gung Memorial …, priority 2015, published 2021).

For test [1], the system named is CL97 (gefitinib resistance cell line) xenograft. The experiment in a line: CL97 xenograft tumor study. The class given is in vivo, NOD/SCID mice. Conditions: oral; Gefitinib 100 mg/kg 2 times/week; C1 1 g/kg, C2 600 mg/kg, C3 150 mg/kg 5 days/week; 10 weeks. Here is the method: Human lung cancer cell line CL97 (obtained from Dr. Pan-Chyr Yang's lab, 1 million cells/injection) were subcutaneously injected into the right flank of NOD/SCID mice (female, 4-6 weeks old) and allowed one-two week for tumor growth. […] Over the period of 10 weeks, tumorigenesis in both groups was measured using a caliper on a weekly basis. The change in tumor size was expressed as in fold change and plotted over time.

Test [2] relates to HUVEC cells. The experiment in a line: Tube formation assay. The class given is cell-based. The settings on record: sorafenib 10 μM (positive control). As for the experimental part:
Tube formation assay was used to test the inhibitory effect of Composition 3 (400 and 600 μg/ml) in HUVEC cells. Treatment of sorafenib was used as a positive control. […] All samples were assayed in triplicate. Four images were taken per well of a 96-well plate at 10×. The data were quantitated by calculating the pentagonal ring or hexagonal ring loop numbers of each well and used solvent control (DMSO) as 100%.
In addition to the study of the immune modulator role of Composition 3, whether Composition 3 might affect angiogenesis was also studied. To investigate the anti-angiogenesis ability of Composition 3, the effect of Composition 3 on HUVEC cells tube formation was first tested. In the normal condition, HUVEC cells will arrange into pentagon or hexagon shape in matrigel to form a tube.

Consider `COc1cc2ncnc(Nc3ccc(F)c(Cl)c3)c2cc1OCCCN1CCOCC1` [Gefitinib], for which, in test [1], the “Tumor reduction (%)” value turned out to be 8.8%.

Regarding `CNC(=O)c1cc(Oc2ccc(NC(=O)Nc3ccc(Cl)c(C(F)(F)F)c3)cc2)ccn1` [sorafenib], the “number of complete pentagon or hexagon tube” value in test [2] is “significant decreased”.
